Results from patent US20250204515A1, “Heparanase Inhibition for Graft Protection” (University of Pittsburgh - Of the Commonwealth System of …, priority 2022, published 2025).
“Also recorded” adds a separate entry of the source.

Tests used:
heparanase = molecular target: T1, heparanase (Rattus norvegicus, UniProt Q71RP1); test: Heparanase activity assay in rat lung tissue after 1 h warm ischemia; format: in vivo; settings: rat donors given heparin 300 IU or NAH 300 μg i.v. 5 min before 1 h warm ischemia; vs untreated control
T1 construct: isolated lung tissue lysate was applied to biotinylated heparan sulfate-coated wells; from tissue; host or cells: rat (Lewis) lung tissue lysate
T1 sequence (Q71RP1 29-536): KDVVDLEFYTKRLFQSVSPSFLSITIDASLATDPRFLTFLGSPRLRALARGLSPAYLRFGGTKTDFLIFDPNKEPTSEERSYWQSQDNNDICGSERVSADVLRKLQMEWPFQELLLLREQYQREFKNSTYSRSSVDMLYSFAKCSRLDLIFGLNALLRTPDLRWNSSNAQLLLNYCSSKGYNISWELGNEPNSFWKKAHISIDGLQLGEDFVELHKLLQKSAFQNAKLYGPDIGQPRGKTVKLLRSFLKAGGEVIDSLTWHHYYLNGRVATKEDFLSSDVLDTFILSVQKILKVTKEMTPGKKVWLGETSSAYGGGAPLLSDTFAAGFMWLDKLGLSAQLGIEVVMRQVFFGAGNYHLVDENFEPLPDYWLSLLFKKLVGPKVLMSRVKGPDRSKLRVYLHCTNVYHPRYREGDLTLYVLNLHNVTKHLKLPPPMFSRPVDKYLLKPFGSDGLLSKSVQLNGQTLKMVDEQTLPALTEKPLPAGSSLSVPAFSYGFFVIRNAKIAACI
Method: Models of lungs with damaged or preserved eGC and rat orthotopic left lung transplantation. Rats were sedated with 4% isoflurane via inhalation for tracheostomy and then placed on a ventilator. They received 5% isoflurane with 100% O2 via inhalation through the ventilator for 15 min to induce a deep state of anesthesia that causes arrest of spontaneous breathing. The rats were disconnected from the ventilator 5 min after intravenous administration of heparin (300 IU), a heparin derivative without anti-coagulant properties (300 μg; N-acetyl heparin (NAH) (Millipore Sigma, Burlington, MA)), or saline (300 μl, control) through the jugular vein. Cardiac activity and blood oxygen saturation were monitored after disconnection from ventilator until cardiac arrest. One hour after induction of ischemia, a median thoracotomy was performed, and blood was flushed from the lungs with cold, low potassium dextran solution (PERFADEX; XVIVO Perfusion AB) through the pulmonary artery. […]
Heparanase activity assay. Heparanase activity was measured using a heparanase assay kit (AMS Bio-technology (Europe) Ltd., Abingdon, UK) to quantitate heparan sulfate degradation according to the manufacturer's instructions. […] After incubation and washing, the remaining heparan sulfate was detected using a biotin-streptavidin-HRP system.

[1] = tested on: human lung microvascular endothelial cells (HLMVECs); test: In-vitro cellular toxicity test for HPSE inhibitor candidates
Method: In-vitro cellular toxicity test for HPSE Inhibitor candidates: Human lung microvascular endothelial cells (HLMVECs) were obtained from the American Type Culture Collection (Rockville, MD, USA). Cells were cultured in a humidified incubator at 37° C. and 5% CO2 and grown in endothelial growth medium (EGM™-2 Endothelial Cell Growth Medium-2, Lonza, Basel, Switzerland) supplemented with 2% heat-inactivated fetal bovine serum and 0.04% hydrocortisone. Cell media was replaced every 48 hours, and the cells were split upon 80-90% confluence.
Final tested concentrations of HPSE inhibitors were calculated based upon repeatable in vitro dose-response studies. After 24 hours incubation, cell viability was confirmed by Trypan blue exclusion assay. Total mRNA was isolated using Trizol (Thermo Fisher Scientific Inc., Waltham, MA) and relative messenger RNA (mRNA) expression levels of hemeoxygenase-1 (HO-1), interleukin (IL)-6, tumor necrosis factor (TNF)-α, monocyte chemoattractant protein (MCP)-1, B-cell lymphoma 2 Associated X (Bax), B-cell lymphoma 2 (Bcl-2), B-cell lymphoma-extra-large (Bcl-xL) were quantified by SYBR Green 2-step, real-time, reverse transcription-polymerase chain reaction (RT-PCR). Relative gene expression levels were normalized to mRNA expression of glyceraldehyde-3-phosphate dehydrogenase (GAPDH) and compared to relative mRNA expression levels in control-treated HLMVEC.

HPSE = HPSE activity assay in rat lung tissue after 4 hours of EVLP; settings: after 4-hours EVLP; heparin 1000-U/hour or SF4 1 μM in perfusate
Method: HPSE activity assay. HPSE activity was measured via a β-glucuronidase activity assay using 4-methylumbelliferyl-β-D-glucuronide (4-MUG) substrate (Millipore-Sigma). Briefly, after 4 hours of EVLP, lung tissues were homogenized in cold PBS. […] Fluorescence (λex 360 nm/λem 460 nm) was continuously measured for 60 minutes using a fluorescence microplate reader (BioTech Synergy HTX, Agilent Technologies, Santa Clara, CA).

MMP-2 = test: Gelatin zymography of EVLP perfusate, inhibitors in perfusate; parameters: species or system rat; settings: 4 hours EVLP, vs SF4 and control groups
Method: Gelatin zymography: Gelatin zymography was performed to measure secreted MMP-2 and MMP-9 activities in EVLP perfusate. Briefly, 20 μl of perfusate was mixed with 2×SDS sample buffer then loaded onto a 10% polyacrylamide gel containing 0.1% SDS and […]. After protein separation by electrophoresis, the gel was washed in renaturing buffer (Novex™ Invitrogen™) at room temperature, and then incubated in developing buffer (Novex™ Invitrogen™) overnight at 37° C. The next day, the gel was stained with Coomassie Brilliant Blue R-250 (Bio-Rad) and imaged (ChemiDoc, Bio-Rad). Enzyme activity, visualized as clear bands against the dark blue background, was quantified using Image-J (NIH).

heparanase (HPSE) = test: In vitro β-D-glucuronidase activity assay (4-MUG substrate)
Method: In vitro β-D-glucuronidase activity assay Heparanase activity was measured via β-Glucuronidase activity assay using 4-methylumbelliferyl-β-D-glucuronide (4-MUG) substrate (Millipore-Sigma). As a source of enzymes, platelet rich plasma (PRP) obtained from rat whole blood or rat lung whole tissue lysate, was used. […] Fluorescence (λex 360 nm/λem 460 nm) was continuously measured for 60 minutes using a fluorescence microplate reader (BioTech Synergy HTX, Agilent Technologies, Santa Clara, CA).

rat lungs = test: Rat EVLP for 4 hours with HPSE inhibitors in the perfusate: physiology, endothelial barrier, edema; settings: heparin 1000-U/hour or SF4 1 μM in perfusate
Method: In the heparin group, 1000-U of heparin were initially added to the EVLP perfusate, then 1000-U of heparin were administered every hour during EVLP. […] Two control conditions were included in the experimental protocol: 1) sham controls (Sham) were lungs not placed on EVLP and 2) untreated controls (Control) were lungs placed on EVLP without HPSE inhibitor treatment. EVLP physiology, endothelial integrity, inflammation and glycocalyx preservation for EVLP lungs and post-transplant lung grafts were investigated across all treatment regimens.
Ex vivo lung perfusion in rats: EVLP was performed using a commercially-available rodent EVLP system (IL-2 Isolated Perfused Rat or Guinea Pig Lung System; Harvard apparatus, Holliston, MA). Acellular Steen solution was used for EVLP perfusate and medicated with methylprednisolone (Solu-Medrol®; Pfizer, Inc., New York, NY) and cephalosporin (Cefazolin; WG critical care LLC, Paramus, NJ) equally in all experimental groups. […] Pulmonary artery pressure, peak airway pressure, and airway flow were monitored continuously, and dynamic lung compliance (Cdyn) and pulmonary vascular resistance (PVR) were analyzed.
Evaluation of endothellal barrier Integrity After 4 hours of EVLP, 60 mg of Evans blue dye (EBD, Millipore-Sigma, Burlington, MA) was administered into the perfusate to assess vascular endothelial permeability. After 30 minutes of perfusion, the lung vascular bed was rinsed with 20 ml of phosphate-buffered saline (PBS), and slices of lungs were incubated in formamide (Millipore Sigma) overnight at 60° C. Absorbance of the extractant was measured at 620 nm, and EBD was normalized to dry-tissue weight.
Wet-to-Dry (W/D) weight ratio: Lung tissues collected 2 hours after transplant were immediately weighed then placed in a 60° C. oven to dry for 72 hours. Tissues were weighed again after drying to determine the wet-to-dry lung weight ratio.

| Substance | heparanase activity in lung tissue (heparanase) | toxicity against HLMVECs (endothelial cell cultures) [1] | HPSE activity in the lungs (HPSE) | MMP-2 activity in EVLP perfusate (MMP-2) | inhibition of HPSE in vitro, compared with SF4 (heparanase (HPSE); in vitro data) | β-D-glucuronidase activity, dose response (heparanase (HPSE); in vitro, FIG. 8) | pulmonary vascular resistance (PVR) during EVLP (rat lungs; 4-hour EVLP) | dynamic lung compliance (Cdyn) during EVLP (rat lungs; 4-hour EVLP, vs control) | Evans blue dye (EBD) accumulation in lung tissue (rat lungs; after 4-hours EVLP) | wet-to-dry (W/D) ratio (rat lungs; after 4 hours of EVLP) |
| --- | --- | --- | --- | --- | --- | --- | --- | --- | --- | --- |
| heparin | decreased; also recorded: inhibited | safe | partially inhibited; also recorded: not sufficiently nor significantly inhibited | significantly elevated | not as effective as SF4 | increased in a dose-dependent manner | increased | neither heparin nor SF4 altered Cdyn | significantly more EBD had accumulated | further augmented |
| N-acetyl heparin [NAH] | inhibited |  |  |  |  |  |  |  |  |  |
